Patent US9034887B2, “Dihydroorotate dehydrogenase as antifungal drug target and quinazolinone-based inhibitors thereof” (F2G Limited, priority 2008, dated 2015)
Values after ≈ are worked out from the molar mass of the structure shown.

Assays:
Aspergillus flavus [1] = experiment: MIC in YAG medium, A. flavus; type: cell-based; settings: 24 hrs at 35° C., >70% growth inhibition, read-out: MIC grade, A. flavus
Description: (§1) Between 1 and 5 mgs of compound were accurately weighed out into a sterile Eppendorf tube. The compound was dissolved in DMSO to give a solution containing 5 mg/mL. Tubes were stored at −20° C. until required.
(§2) On the day of testing thawed solutions were vortex mixed to ensure homogeneity. 30 μL of solution was removed and added to 570 μL of sterile water in a separate sterile Eppendorf. The thoroughly mixed solution was used to prepare a series of doubling dilutions in water, in a deep well plate. Thirteen replicate plates were prepared using a Minitrak by aspirating 20 μL from each well into eleven clear polystyrene 96 well plates.
(§3) Spores of Aspergillus spp. (Aspergillus fumigatus [two strains], Aspergillus terreus [two strains], Aspergillus niger and Aspergillus flavus) were harvested from cultures grown on Sabarauds agar for 5 days, and resuspended in PBS/Tween 80 to approx 1×10^7 cfu/mL. Each organism suspension was diluted in YAG medium (1% glucose, 1% ammonium chloride and 0.5% yeast extract) to 0.5-2×10^4 cfu/mL. 80 μL of an organism suspension was added to each well of the plate containing drug dilutions.
(§4) All plates were incubated for 24 hrs at 35° C. Growth was assessed by monitoring the optical density at 485 nm for each well. The MIC of a compound is the lowest drug concentration that inhibits growth of an organism by >70% compared with a drug free control. MICs are recorded as mg/L. In cases where the MIC of an organism is […] the MIC is repeated using a concentration range of 0.5-0.0005 mg/L.

Aspergillus fumigatus = experiment: MIC in YAG medium, A. fumigatus; type: cell-based; settings: 24 hrs at 35° C., >70% growth inhibition, read-out: MIC grade, A. fumigatus
Description: as §1, §2, §3, §4

A. fumigatus 210 = experiment: MIC in YAG medium, A. fumigatus 210; type: cell-based; settings: Aspergillus fumigatus, 24 hrs at 35° C., >70% growth inhibition, read-out: MIC grade, A. fumigatus 210
Description: as §1, §2, §3, §4

Aspergillus niger [2] = experiment: MIC in YAG medium, A. niger; type: cell-based; settings: 24 hrs at 35° C., >70% growth inhibition, read-out: MIC grade, A. niger
Description: as §1, §2, §3, §4

Aspergillus terreus = experiment: MIC in YAG medium, A. terreus; type: cell-based; settings: 24 hrs at 35° C., >70% growth inhibition, read-out: MIC grade, A. terreus
Description: as §1, §2, §3, §4

A. terreus 49 = experiment: MIC in YAG medium, A. terreus 49; type: cell-based; settings: Aspergillus terreus, 24 hrs at 35° C., >70% growth inhibition, read-out: MIC grade, A. terreus 49
Description: as §1, §2, §3, §4

Aspergillus flavus [3] = experiment: MIC in RPMI medium, A. flavus; type: cell-based; settings: 24-48 hrs at 35° C., >80% growth inhibition, read-out: MIC grade, A. flavus
Description: as §1, §2
(§5) Assays were also performed in RPMI medium. To perform MIC tests in this medium, dilutions of compounds are prepared in microtitre plates as described above. Fungal strains to be tested are grown and harvested in an identical manner to that described above, and each organism suspension was diluted in RPMI medium, containing 2% glucose and 0.135 M MOPS buffer (pH 7.0) to 0.5-2×10^4 cfu/mL, rather than in YAG medium. 80 μL of an organism suspension was added to each well of the plate containing drug dilutions.
(§6) All plates were incubated for 24-48 hrs at 35° C. Growth was assessed by monitoring the optical density at 485 nm for each well. […] The following organisms were tested: Aspergillus flavus, Aspergillus fumigatus AF293 and AF210, Aspergillus niger and Aspergillus terreus AT4 and AT49.

[4] = system: Aspergillus fumigatus AF293; experiment: MIC in RPMI medium, A. fumigatus; type: cell-based; settings: 24-48 hrs at 35° C., >80% growth inhibition, read-out: MIC grade, A. fumigatus
Description: as §1, §2, §5, §6

[5] = system: Aspergillus fumigatus AF210; experiment: MIC in RPMI medium, A. fumigatus 210; type: cell-based; settings: 24-48 hrs at 35° C., >80% growth inhibition, read-out: MIC grade, A. fumigatus 210
Description: as §1, §2, §5, §6

Aspergillus niger [6] = experiment: MIC in RPMI medium, A. niger; type: cell-based; settings: 24-48 hrs at 35° C., >80% growth inhibition, read-out: MIC grade, A. niger
Description: as §1, §2, §5, §6

Aspergillus terreus AT4 = experiment: MIC in RPMI medium, A. terreus; type: cell-based; settings: 24-48 hrs at 35° C., >80% growth inhibition, read-out: MIC grade, A. terreus
Description: as §1, §2, §5, §6

Aspergillus terreus AT49 = experiment: MIC in RPMI medium, A. terreus 49; type: cell-based; settings: 24-48 hrs at 35° C., >80% growth inhibition, read-out: MIC grade, A. terreus 49
Description: as §1, §2, §5, §6

[7] = biological target: T1, Recombinant DHODH from human (Homo sapiens, UniProt Q02127); experiment: DHODH inhibition screen (DCIP reduction, 600 nm), human enzyme; type: biochemical; settings: Table 3, read-out: IC50 values for Compound Examples 1 to 15 identified from screens, Human
T1 construct: His-tag; NusA (Nus-tag) fusion of vector pET43.1 (own knowledge of the vector) (N); made in house; host or cells: E. coli BL21 DE3
Description: (§7) 1. The following buffer and stock solution were prepared:
Coenzyme Q2 (Sigma) was dissolved in DMSO to give a concentration of 10 mg/ml. […] The stock solution was made with 127.36 μl DHO, 127.36 μl DCIP and 318.4 μl Coenzyme Q2, made up to 80 ml with Buffer A. Final concentrations in assay wells were; DHO, 500 μM; Coenzyme Q, 50 μM; DCIP, 100 μM.
2. […] Duplicate sets of plates were used such that one set received enzyme while a control set received no enzyme.
3. […] Then 20 μl of DHODH solution was added to all the +enzyme plates and 20 μl of Buffer A was added to all the control −enzyme plates.
(§8) 4. 20 μl of DHO/Coenzyme Q2/DCIP solution was added to all the wells, after which plates were incubated at room temperature for […] and then read on a Tecan Safire spectrophotometer at 600 nm.
(§9) Recombinant DHODH from human or C. albicans was assayed in the same way. It is necessary to adjust the enzyme concentration and reaction time to take into account variations in activity of enzyme batches, thus the incubation time was 20 minutes for the C. albicans enzyme and 34 minutes for the human enzyme.

[8] = biological target: Recombinant A. fumigatus DHODH (Aspergillus fumigatus, UniProt Q4X169); experiment: DHODH inhibition screen (DCIP reduction, 600 nm), A. fumigatus enzyme; type: biochemical
Description: as §7
Buffer A: 62.5 mM TrisHCl (pH8.0), 150 mM NaCl, 10% v/v glycerol
DHO/Coenzyme Q2/DCIP solution: 19.848 mg dihydroorotate (DHO; Sigma) was dissolved in 160 μl DMSO. Coenzyme Q2 (Sigma) was dissolved in DMSO to give a concentration of 10 mg/ml. 7.236 mg 2,6-dichloroindophenol (DCIP; Sigma) was dissolved in 160 μl DMSO. The stock solution was made with 127.36 μl DHO, 127.36 μl DCIP and 318.4 μl Coenzyme Q2, made up to 80 ml with Buffer A. Final concentrations in assay wells were; DHO, 500 μM; Coenzyme Q, 50 μM; DCIP, 100 μM.
2. Compounds were aliquotted into 384-well microtitre plates at a range of dilutions to give final concentrations in the assay of […]. Duplicate sets of plates were used such that one set received enzyme while a control set received no enzyme. Since compounds are frequently dissolved in DMSO or a DMSO/water mixture, assays were set up to give a final concentration of 1% (v/v) DMSO in wells.
3. Recombinant A. fumigatus DHODH was suspended in Buffer A to give a concentration of 1435.8 ng protein in 20 μl. Then 20 μl of DHODH solution was added to all the +enzyme plates and 20 μl of Buffer A was added to all the control −enzyme plates.
as §8
as §9, with “enzyme. Compounds are screened against a fungal and human enzyme to identify compounds which are selective for the fungal enzyme.” for “enzyme.”

Recombinant A. fumigatus DHODH, sequence (Q4X169 entry or part of it): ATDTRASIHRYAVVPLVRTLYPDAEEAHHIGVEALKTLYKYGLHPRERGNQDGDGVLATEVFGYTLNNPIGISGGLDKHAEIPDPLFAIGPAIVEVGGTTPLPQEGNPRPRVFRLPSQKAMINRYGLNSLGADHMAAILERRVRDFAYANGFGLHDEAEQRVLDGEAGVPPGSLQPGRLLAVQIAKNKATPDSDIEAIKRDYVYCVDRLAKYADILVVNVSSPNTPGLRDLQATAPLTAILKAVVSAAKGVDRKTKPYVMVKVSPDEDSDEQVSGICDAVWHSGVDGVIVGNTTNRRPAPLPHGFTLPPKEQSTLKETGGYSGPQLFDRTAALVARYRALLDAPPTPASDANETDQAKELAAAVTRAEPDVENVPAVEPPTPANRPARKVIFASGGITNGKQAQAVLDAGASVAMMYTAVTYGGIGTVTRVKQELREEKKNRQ
T1 sequence (Q02127 31-395 limits assumed): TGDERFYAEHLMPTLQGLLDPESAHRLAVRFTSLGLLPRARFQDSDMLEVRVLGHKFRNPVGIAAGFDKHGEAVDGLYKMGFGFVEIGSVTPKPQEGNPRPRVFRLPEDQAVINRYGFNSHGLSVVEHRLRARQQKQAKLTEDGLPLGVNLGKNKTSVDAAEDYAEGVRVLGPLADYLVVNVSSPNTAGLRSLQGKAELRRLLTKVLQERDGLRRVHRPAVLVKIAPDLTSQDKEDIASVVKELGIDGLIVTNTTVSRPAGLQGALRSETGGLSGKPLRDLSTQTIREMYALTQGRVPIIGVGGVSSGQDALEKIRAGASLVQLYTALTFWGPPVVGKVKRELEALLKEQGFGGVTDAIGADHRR

Compound	MIC (Aspergillus flavus [1]) [µg/mL]	MIC (Aspergillus fumigatus) [µg/mL]	MIC (A. fumigatus 210) [µg/mL]	MIC (Aspergillus niger [2]) [µg/mL]	MIC (Aspergillus terreus) [µg/mL]	MIC (A. terreus 49) [µg/mL]	MIC (Aspergillus flavus [3]) [µg/mL]	MIC [4] [µg/mL]	MIC [5] [µg/mL]	MIC (Aspergillus niger [6]) [µg/mL]	MIC (Aspergillus terreus AT4) [µg/mL]	MIC (Aspergillus terreus AT49) [µg/mL]	IC50 [7] [µM]	IC50 [8] [µM]
COc1ccccc1-n1c(SC(C)C)nc2cc(C)ccc2c1=O [Compound Example 1, 2-Isopropylsulfanyl-3-(2-methoxy-phenyl)-7-methyl-3H-quinazolin-4-one]	< 1	< 1	< 1	< 1	< 1	< 1	> 10	1 to 10 (≈ 2.94 to 29.4 µM)	1 to 10 (≈ 2.94 to 29.4 µM)	> 10	< 1	< 1		
COc1ccccc1-n1c(SC(C)C)nc2ccc(C)cc2c1=O [Compound Example 2, 2-Isopropylsulfanyl-3-(2-methoxy-phenyl)-6-methyl-3H-quinazolin-4-one]	> 10	< 1	< 1	< 1	< 1	< 1	> 10	1 to 10 (≈ 2.94 to 29.4 µM)	1 to 10 (≈ 2.94 to 29.4 µM)	< 1	> 10	1 to 10 (≈ 2.94 to 29.4 µM)		
COc1ccccc1-n1c(SC(C)C)nc2cccc(C)c2c1=O [Compound Example 3, 2-Isopropylsulfanyl-3-(2-methoxy-phenyl)-5-methyl-3H-quinazolin-4-one]	> 10	< 1	< 1	< 1	< 1	< 1	> 10	1 to 10 (≈ 2.94 to 29.4 µM)	1 to 10 (≈ 2.94 to 29.4 µM)	< 1	> 10	1 to 10 (≈ 2.94 to 29.4 µM)		
COc1ccccc1-n1c(SC(C)C)nc2cccc(OC)c2c1=O [Compound Example 4, 2-Isopropylsulfanyl-5-methoxy-3-(2-methoxy-phenyl)-3H-quinazolin-4-one]	1 to 10 (≈ 2.81 to 28.1 µM)	< 1	< 1	< 1	< 1	< 1	> 10	< 1	1 to 10 (≈ 2.81 to 28.1 µM)	< 1	1 to 10 (≈ 2.81 to 28.1 µM)	1 to 10 (≈ 2.81 to 28.1 µM)	73	4.95
CCSc1nc2cc(C)ccc2c(=O)n1-c1ccccc1OC [Compound Example 5, 2-Ethylsulfanyl-3-(2-methoxy-phenyl)-7-methyl-3H-quinazolin-4-one]	< 1	< 1	< 1	< 1	< 1	< 1	> 10	1 to 10 (≈ 3.06 to 30.6 µM)	1 to 10 (≈ 3.06 to 30.6 µM)	> 10	1 to 10 (≈ 3.06 to 30.6 µM)	1 to 10 (≈ 3.06 to 30.6 µM)	15.5	5.4
COc1ccccc1-n1c(SC(C)C)nc2ccc(N(C)C)cc2c1=O [Compound Example 6, 6-Dimethylamino-2-isopropylsulfanyl-3-(2-methoxy-phenyl)-3H-quinazolin-4-one]	> 10	1 to 10 (≈ 2.71 to 27.1 µM)	1 to 10 (≈ 2.71 to 27.1 µM)	< 1	1 to 10 (≈ 2.71 to 27.1 µM)	1 to 10 (≈ 2.71 to 27.1 µM)	> 10	> 10	1 to 10 (≈ 2.71 to 27.1 µM)	< 1	> 10	> 10	1.09	10.1
COc1ccccc1-n1c(SC(C)C)nc2ccccc2c1=O [Compound Example 7, 2-Isopropylsulfanyl-3-(2-methoxy-phenyl)-3H-quinazolin-4-one]	> 10	< 1	< 1	< 1	< 1	1 to 10 (≈ 3.06 to 30.6 µM)	> 10	1 to 10 (≈ 3.06 to 30.6 µM)	1 to 10 (≈ 3.06 to 30.6 µM)	< 1	1 to 10 (≈ 3.06 to 30.6 µM)	1 to 10 (≈ 3.06 to 30.6 µM)	50.1	11.6
CC(C)Sc1nc2ccccc2c(=O)n1-c1ccccc1C(C)C [Compound Example 8, 3-(2-Isopropyl-phenyl)-2-isopropylsulfanyl-3H-quinazolin-4-one]	> 10	< 1	< 1	< 1	< 1	< 1	> 10	< 1	1 to 10 (≈ 2.95 to 29.5 µM)	< 1	> 10	1 to 10 (≈ 2.95 to 29.5 µM)	131	12.2
CCc1ccccc1-n1c(SC(C)C)nc2ccccc2c1=O [Compound Example 9, 3-(2-Ethyl-phenyl)-2-isopropylsulfanyl-3H-quinazolin-4-one]	> 10	< 1	< 1	< 1	1 to 10 (≈ 3.08 to 30.8 µM)	< 1	> 10	< 1	> 10	< 1	> 10	> 10	123	17.7
